Assay results taken from PMC8138313, “Identification, Selection and Immune Assessment of Liver Stage CD8 T Cell Epitopes From Plasmodium falciparum” (Frontiers in Immunology, 2021).
Where a SMILES comes first, the peptide text is derived from it.

These molecules were tested against HLA A*0201 (Homo sapiens, UniProt P04439, D140Y/D185E/D98H/E176V/E277Q/G131W/G231S/I119V/I121R/I166T/I218V/L300P/L318F/N151K/N90K/P208A/P217A/Q86G/Q94H/R138H/R169H/T345S) (assay: HLA class I binding assay (cell-free competition, fluorescence polarization)).

| SMILES | IC50 [µM] |
| --- | --- |
| CC(C)C[C@H](NC(=O)[C@H](CC(C)C)NC(=O)[C@H](CC(N)=O)NC(=O)[C@H](CC(C)C)NC(=O)[C@H](CC(C)C)NC(=O)[C@@H](N)Cc1ccccc1)C(=O)N[C@@H](CC(N)=O)C(=O)N[C@@H](CCC(=O)O)C(=O)N[C@@H](Cc1c[nH]cn1)C(=O)N[C@H](C(=O)O)C(C)C (H-FLLNLLNEHV-OH) | 1.68 |
| CC[C@H](C)[C@H](NC(=O)CN)C(=O)N[C@@H](C)C(=O)N[C@@H](CC(N)=O)C(=O)N[C@@H](CC(=O)O)C(=O)N[C@@H](CC(C)C)C(=O)N[C@@H](CO)C(=O)N[C@H](C(=O)N[C@@H](CC(C)C)C(=O)O)[C@@H](C)O (H-GIANDLSTL-OH) | 5.73 |
| CC[C@H](C)[C@H](N)C(=O)N[C@@H](CC(C)C)C(=O)N[C@@H](Cc1ccc(O)cc1)C(=O)N[C@@H](CCCCN)C(=O)N[C@@H](CC(N)=O)C(=O)N[C@H](C(=O)N[C@@H](CC(=O)O)C(=O)N[C@@H](CS)C(=O)N[C@H](C(=O)O)C(C)C)[C@@H](C)CC (H-ILYKNIDCV-OH) | 1.4 |
| CC[C@H](C)[C@H](NC(=O)[C@H](CC(=O)O)NC(=O)[C@@H](NC(=O)[C@H](CO)NC(=O)[C@@H](NC(=O)[C@@H](N)CC(C)C)[C@@H](C)CC)[C@@H](C)O)C(=O)N[C@H](C(=O)N[C@@H](Cc1ccccc1)C(=O)N[C@@H](CC(C)C)C(=O)O)[C@@H](C)CC (H-LISTDIIFL-OH) | 0.614 |
| CC(C)C[C@H](NC(=O)[C@H](CC(N)=O)NC(=O)[C@H](C)NC(=O)[C@H](C)NC(=O)[C@H](CCCCN)NC(=O)[C@H](CCC(N)=O)NC(=O)[C@H](Cc1ccccc1)NC(=O)[C@H](CC(C)C)NC(=O)[C@@H](N)CC(C)C)C(=O)O (H-LLFQKAANL-OH) | 1.88 |
| CC(C)C[C@H](NC(=O)[C@@H](N)CC(N)=O)C(=O)N[C@@H](Cc1ccccc1)C(=O)N[C@@H](CCC(=O)O)C(=O)N[C@@H](Cc1c[nH]c2ccccc12)C(=O)N[C@@H](CO)C(=O)N[C@@H](CCCCN)C(=O)N[C@H](C(=O)N[C@H](C(=O)O)C(C)C)[C@@H](C)O (H-NLFEWSKTV-OH) | 1.62 |
| CC[C@H](C)[C@H](NC(=O)[C@H](CO)NC(=O)[C@H](CCCCN)NC(=O)[C@H](CC(N)=O)NC(=O)[C@H](CCC(N)=O)NC(=O)[C@H](Cc1ccccc1)NC(=O)[C@H](Cc1ccccc1)NC(=O)[C@H](CC(C)C)NC(=O)[C@@H](N)CC(N)=O)C(=O)O (H-NLFFQNKSI-OH; N-terminus assumed) | > 1000 |

Each molecule was assayed against HLA A*0301 (Homo sapiens, UniProt P04439) in the same assay as above.

| SMILES | IC50 [µM] |
| --- | --- |
| CC(C)C[C@H](NC(=O)[C@H](C)N)C(=O)N[C@@H](CC(N)=O)C(=O)N[C@@H](CC(C)C)C(=O)N[C@@H](Cc1ccccc1)C(=O)N[C@@H](Cc1ccccc1)C(=O)N[C@@H](CCC(N)=O)C(=O)N[C@@H](CC(N)=O)C(=O)N[C@@H](CCCCN)C(=O)O (H-ALNLFFQNK-OH) | 1.14 |
| CC(C)C[C@H](NC(=O)[C@H](Cc1ccccc1)NC(=O)[C@H](CO)NC(=O)[C@H](Cc1ccccc1)NC(=O)[C@H](CS)NC(=O)[C@@H](N)Cc1ccccc1)C(=O)N[C@@H](CCCCN)C(=O)N[C@@H](CO)C(=O)N[C@@H](CO)C(=O)N[C@@H](CCCCN)C(=O)O (H-FCFSFLKSSK-OH) | 9.21 |
| CSCC[C@H](NC(=O)[C@@H](NC(=O)[C@H](CC(=O)O)NC(=O)[C@H](Cc1c[nH]cn1)NC(=O)[C@@H]1CCCN1C(=O)[C@H](CO)NC(=O)[C@H](CC(C)C)NC(=O)CN)[C@@H](C)O)C(=O)N[C@@H](CCC(N)=O)C(=O)N[C@@H](CCCCN)C(=O)O (H-GLSPHDTMQK-OH) | 1.1 |
| CC[C@H](C)[C@H](N)C(=O)N[C@@H](CC(C)C)C(=O)N[C@H](C(=O)N[C@@H](CO)C(=O)N[C@@H](CCCNC(=N)N)C(=O)N[C@@H](CC(C)C)C(=O)N[C@H](C(=O)N[C@@H](CC(C)C)C(=O)N[C@@H](CCCCN)C(=O)O)[C@@H](C)O)[C@@H](C)CC (H-ILISRLTLK-OH) | 0.22 |
| CC[C@H](C)[C@H](NC(=O)[C@H](Cc1ccccc1)NC(=O)[C@H](CO)NC(=O)[C@H](CO)NC(=O)[C@@H](NC(=O)[C@@H](N)CCCCN)[C@@H](C)CC)C(=O)N[C@@H](CC(N)=O)C(=O)N[C@@H](CCC(N)=O)C(=O)N[C@@H](CCCNC(=N)N)C(=O)N[C@@H](CCCCN)C(=O)O (H-KISSFINQRK-OH) | 0.316 |
| CSCC[C@H](NC(=O)[C@H](CC(N)=O)NC(=O)[C@H](Cc1ccc(O)cc1)NC(=O)[C@H](CC(N)=O)NC(=O)[C@H](CC(=O)O)NC(=O)[C@H](Cc1ccc(O)cc1)NC(=O)[C@H](CC(N)=O)NC(=O)[C@@H](N)CCCCN)C(=O)N[C@@H](CCCCN)C(=O)O (H-KNYDNYNMK-OH) | 2.51 |
| CC[C@H](C)[C@H](NC(=O)[C@H](CCSC)NC(=O)[C@H](CCCCN)NC(=O)[C@H](CCSC)NC(=O)[C@@H](NC(=O)[C@@H](N)CC(C)C)[C@@H](C)O)C(=O)N[C@@H](CC(N)=O)C(=O)N[C@@H](CC(N)=O)C(=O)N[C@@H](CCCCN)C(=O)O (H-LTMKMINNK-OH) | 0.472 |
| CSCC[C@H](N)C(=O)N[C@@H](CC(=O)O)C(=O)N[C@@H](Cc1ccccc1)C(=O)N1CCC[C@H]1C(=O)N[C@@H](CCCCN)C(=O)N[C@@H](CC(C)C)C(=O)N[C@@H](CC(C)C)C(=O)N[C@@H](CC(N)=O)C(=O)N[C@@H](CCCCN)C(=O)O (H-MDFPKLLNK-OH) | 2.08 |
| CC(C)C[C@H](NC(=O)[C@H](CC(N)=O)NC(=O)[C@H](CC(C)C)NC(=O)[C@@H](N)CC(N)=O)C(=O)N[C@@H](CS)C(=O)NCC(=O)N[C@@H](CCCCN)C(=O)N[C@@H](Cc1ccc(O)cc1)C(=O)N[C@H](C(=O)N[C@@H](CCCCN)C(=O)O)[C@@H](C)O (H-NLNLCGKYTK-OH; N-terminus assumed) | > 1000 |
| CC[C@H](C)[C@H](NC(=O)[C@@H]1CCCN1C(=O)[C@H](Cc1ccc(O)cc1)NC(=O)[C@H](CC(=O)O)NC(=O)[C@H](Cc1ccccc1)NC(=O)[C@@H](NC(=O)[C@@H](N)CCC(N)=O)C(C)C)C(=O)N[C@@H](CCC(=O)O)C(=O)N[C@@H](CCCCN)C(=O)O (H-QVFDYPIEK-OH) | 1.57 |
| CC[C@H](C)[C@H](NC(=O)[C@@H](N)CCCNC(=N)N)C(=O)N[C@@H](CO)C(=O)NCC(=O)N[C@@H](Cc1c[nH]c2ccccc12)C(=O)N[C@@H](CCCCN)C(=O)NCC(=O)N[C@@H](CC(=O)O)C(=O)N[C@@H](CC(N)=O)C(=O)N[C@@H](CCCCN)C(=O)O (H-RISGWKGDNK-OH) | 0.548 |
| CC[C@H](C)[C@H](NC(=O)[C@H](CO)NC(=O)[C@H](CCCNC(=N)N)NC(=O)[C@H](CC(N)=O)NC(=O)[C@H](CC(N)=O)NC(=O)[C@H](CC(C)C)NC(=O)[C@@H](N)CCCNC(=N)N)C(=O)N[C@@H](Cc1ccc(O)cc1)C(=O)N[C@@H](CCCCN)C(=O)O (H-RLNNRSIYK-OH) | 0.224 |
| CC(C)C[C@H](NC(=O)[C@H](Cc1ccccc1)NC(=O)[C@@H](NC(=O)[C@H](CCCCN)NC(=O)[C@H](CCCCN)NC(=O)[C@H](CO)NC(=O)[C@@H](N)CCCNC(=N)N)[C@@H](C)O)C(=O)N[C@H](C(=O)N[C@@H](CCCCN)C(=O)O)C(C)C (H-RSKKTFLVK-OH) | 0.409 |
| CC[C@H](C)[C@H](NC(=O)[C@H](CO)NC(=O)[C@H](Cc1ccccc1)NC(=O)[C@@H](NC(=O)[C@H](CO)NC(=O)CNC(=O)[C@H](CO)NC(=O)[C@H](CO)NC(=O)[C@@H](N)CCCNC(=N)N)[C@@H](C)O)C(=O)N[C@@H](CCCCN)C(=O)O (H-RSSGSTFSIK-OH) | 0.326 |
| CSCC[C@H](NC(=O)[C@H](CC(N)=O)NC(=O)[C@H](CCC(N)=O)NC(=O)[C@H](CC(N)=O)NC(=O)[C@H](C)NC(=O)[C@H](CCSC)NC(=O)[C@@H](N)[C@@H](C)O)C(=O)N[C@@H](CC(N)=O)C(=O)N[C@@H](Cc1ccc(O)cc1)C(=O)N[C@@H](CCCCN)C(=O)O (H-TMANQNMNYK-OH) | 0.209 |
